Reference: patent US20250032624A1, “SMALL MOLECULE DEGRADATION METHODS FOR TREATING ALS/FTD” (University of Florida Research Foundation, Incorporated, priority 2021, published 2025)

Assays:
[1] = system: RAN translation, poly(GP); test: poly(GP) abundance in c9ALS/FTD iPSNs; type: cell-based, human; settings: 500 nM, treated 17 days (day 15-32)
Experimental: Differentiated motor neurons (iPSNs) were derived from the iPSCs listed in the previous section. The differentiation process was based on a previously reported method with slight modifications^33,34. Briefly, iPSCs were plated into Matrigel-coated 100 mm dishes (30-40% confluence). Neuroepithelial induction was performed by replacing the Basal medium with Stage 1 medium [47.5% IMDM (Iscove's Modified Dulbecco's Medium), 47.5% F12 medium, 1% NEAA (Non-Essential Amino Acids) (Life Technologies), 2% B27 (Invitrogen), 1% N2 (Invitrogen), 1% PSA (Penicillin-Streptomycin-Amphotericin), 0.2 μM LDN193189 (Stemgent), 10 μM SB431542 (STEMCELL Technologies) and 3 μM CHIR99021 (Sigma-Aldrich)]. The medium was changed daily for 6 days, after which cells were detached from plates using Accutase (STEMCELL Technologies). Cells were seeded into 6-well plates (1.5×10^6 cells/well) in 3 mL of Stage 2 medium [Stage 1 medium supplemented with 0.1 μM All-trans RA (Sigma-Aldrich) and 1 μM SAG (Cayman Chemicals)]. […]
Meso Scale Discovery (MSD) Technology utilizes electrochemiluminescence to detect biomarkers, such as poly(GP), in protein samples. […] Protein samples were quantified using a Pierce™ Micro BCA Protein Assay Kit (Thermo Scientific).
Poly(GP) levels were measured by an electrochemical luminescent sandwich immunoassay. […]

[2] = system: C9ORF72 protein; test: Western blot of total C9ORF72 protein in c9ALS/FTD iPSCs; type: cell-based, human
Experimental: Protein samples were prepared as described for analysis by the electrochemical luminescent sandwich immunoassay. Approximately 20 μg total protein was loaded onto a 4-20% Mini-PROTEAN® TGX™ Precast Protein Gel (Bio-Rad) and run at 130 V for 1 hour in Tris-Glycine/SDS running buffer (25 mM Tris base, 190 mM glycine, 0.1% SDS, pH 8.3). Following electrophoresis, the protein was transferred to a PVDF membrane using Tris-Glycine transfer buffer (25 mM Tris base, 190 mM glycine, 20% methanol, pH 8.3). After transfer, the membrane was washed with 1×TBST and blocked in a solution of 5% (w/v) milk in 1×TBST for 30 minutes at room temperature with shaking. […] The membrane was then washed three times with 1×TBST and protein expression was quantified using SuperSignal West Pico Plus Chemiluminescent Substrate (Life Technologies), per the manufacturer's protocol, and film exposure. To quantify β-actin expression, the membrane was washed with 1×TBST and stripped using 1×Stripping Buffer (200 mM glycine, 1% (v/v) Tween-20, 0.1% (w/v) SDS, pH 2.2). […] The membrane was washed with 1×TBST and incubated with 1:5,000 anti-mouse IgG horseradish-peroxidase secondary antibody conjugate (Cell Signaling Technology) in 1×TBST at room temperature for 1 hour. β-actin protein expression was quantified as previously described.

SMILES: CCOC(=O)C1=C(Nc2ccccc2)S/C(=C\c2ccc(OCCOCCOCCOCCNC(=O)CCCOc3ccc4c(c3)c3cc5c(C(=O)N[C@H](C)CN(C)C)nccc5c(C)c3n4C)c(O)c2)C1=O [ALS Compound Formula I]
- reduction of poly(GP) abundance [1]: ~60%
- effect on healthy C9ORF72 protein levels [2]: no effect
